Where two headings read alike, the source gives them in different places.
How the values were obtained:
[1] = Cu^2+, cited from earlier work
[2] = Pb^2+, cited from earlier work
[3] = Cr^2+; cited from earlier work
[4] = Zn^2+, cited from earlier work
[5] = Ni^2+, cited from earlier work
[6] = Co^2+, cited from earlier work
[7] = Cd^2+, cited from earlier work
[8] = Hg^2+, cited from earlier work
[9] = Decorporation of Polonium-210: tissue distribution of IV administered Po-210 in rats; type: in vivo, Wistar-Han rats; conditions: for % Reduction of Po-210 vs Po-210 Control / effect on polonium-210 level (in words): oral 15 mg/kg x 5, day 6; for Po-210 dpm/gm for animal group: single IV Po-210 approx. 90 kBq, oral 15 mg/kg every 24 h x 5, sacrifice day 6
Protocol: The digested sample was diluted with distilled water to reduce the nitric acid to approximately 1 M. An aliquot of the resulting solution was added to Ultima Gold XR liquid scintillation cocktail (Packard BioScience, Meriden, Conn.), counted and corrected for possible quenching.

[10] = Mn^2+; cited from earlier work
[11] = Fe^2+; cited from earlier work
[12] = Decorporation of Cobalt-60: tissue distribution and excretion of IV administered Co-60 in rats; type: in vivo, Male Wistar-Han rats; conditions: single oral dose 15 mg/kg; for Co-60 Dose % for animal group: single IV Co-60 14 KBq, 48 hr post exposure
Protocol: Materials. Chloride stock solution of ^60Co as ^60CoCl2 was diluted with sterile saline solution to adjust to the desired activity and used for the IV dosing. Activity of the dosing solution was determined using automated Wallac 1480 (Perkin Elmer) gamma counter equipped with 3 inch NaI(TI) crystal shielded detector.
Animals. Male Wistar-Han rats were obtained from Charles River Breeding Laboratory (Raleigh, N.C.) with indwelling jugular vein cannula. Animals were provided food and water ad libitum during acclimatization. The light cycle was 12 hour light/12 hour dark and relative humidity and temperature maintained at 50±15% and 22±2° C. All animal use protocols were approved by the Institutional Animal Care and Use Committee at Battelle, Pacific Northwest Division and studies were performed according to the “Guide for the Care and Use of Laboratory Animals” (National Research Council, Washington D.C., 1996).
Dosing regimen. Animals were restricted from food overnight prior to exposure. At the time of exposure, groups of animals (N=6) received a single intravenous (IV) injection (0.2 mL) of ^60Co solution at 14.0±0.6 KBq dose in sterile saline via an indwelling jugular vein cannula. […] The actual doses delivered were calculated based on the individual animal weights (Table 3). One group of animals was dosed with the radionuclide without subsequent administration of the chelation material to serve as control group. Following dosing, animals were placed in Nalgene metabolism cages for separate collection of urine and feces. […] Animals were sacrificed 48 hr post radionuclide administration. At sacrifice, blood and tissues (liver, kidney, spleen, gastrointestinal tract, muscle, bone, bone marrow, and lung) were collected, weighed and counted for radioactivity using a Wallac 1480 gamma counter. Gamma count data were normalized to percent administered dose after adjusting the grams of tissue collected for total organ mass.
Data statistical evaluation. Each data group was subjected to Dixon's Q-test to evaluate for potential outliers. In this test Q parameter of 0.625 (N=6, 95% confidence level, a=0.05) was used (1). For each tissue, a preliminary F-test (95% confidence level, a=0.05) for the equality of variances of the control and each treatment group was performed using Excel software. If the calculated probability p value was less than 0.05, the variances were assumed to be not equal. Based on this information, “T-test: Two-Sample Assuming Unequal Variances” or “T-test: Two-Sample Assuming Equal Variances” (95% confidence level, a=0.05) was performed using Excel software. The calculated p-value less than 0.05 provides evidence to reject the null hypothesis of equal means. The obtained statistical parameters listed in Table 4 served as guidelines for data evaluation (Table 5; calculation assumes that total skeleton, blood, or muscle is approximately 7.3, 6, or 40% of the body weight of the animal, respectively; Co-60 in skeleton is calculated based on the femur data—R. P. Brown, M. D. Delp, S. L. Undstedt, L. R. Rhomberg, and R. P. Beliles, Physiological Parameter Values for Physiologically Based Pharmacokinetic Models. Toxicology and Industrial Health, 1997, 13(4): 407-484).

[13] = Ag^1+; cited from earlier work

## NCCNCCNCCN [Trientine, N,N′-bis (2-aminoethyl)-1,2-ethanediamine]
[1]
  binding stability constant (log K): 20.05 (Cu^2+)
[1]; listed as trientine
  binding stability constant (log K): very strongly
[2]
  binding stability constant (log K): 10.4
[2]; listed as trientine
  binding stability constant (log K): fairly strong
[3]
  binding stability constant (log K): 7.9
[4]
  binding stability constant (log K): 12
[4]; listed as trientine
  binding stability constant (log K): fairly strong
[5]
  binding stability constant (log K): 13.8
[5]; listed as trientine
  binding stability constant (log K): very strongly
[6]
  binding stability constant (log K): 10.9
[6]; listed as trientine
  binding stability constant (log K): fairly strong
[7]
  binding stability constant (log K): 10.6
[7]; listed as trientine
  binding stability constant (log K): fairly strong
[8]
  binding stability constant (log K): 24.5
[8]; listed as trientine
  binding stability constant (log K): very strongly
[9]; Blood
  % Reduction of Po-210 vs Po-210 Control: 0%
  Po-210 dpm/gm for animal group: 33273 ± 7289 dpm/gm
[9]; Femur
  Po-210 dpm/gm for animal group: 22415 ± 2148 dpm/gm
[9]; Kidney
  % Reduction of Po-210 vs Po-210 Control: 0%
  Po-210 dpm/gm for animal group: 187883 ± 15839 dpm/gm
[9]; Liver
  % Reduction of Po-210 vs Po-210 Control: 14%
  effect on polonium-210 level (in words): reduced
  Po-210 dpm/gm for animal group: 120883 ± 21221 dpm/gm
[9]; Lung
  % Reduction of Po-210 vs Po-210 Control: 11%
  Po-210 dpm/gm for animal group: 74512 ± 22281 dpm/gm
[9]; Spleen
  Po-210 dpm/gm for animal group: 269303 ± 47082 dpm/gm
[9]; femur
  % Reduction of Po-210 vs Po-210 Control: 15%
  effect on polonium-210 level (in words): reduced
[9]; spleen
  % Reduction of Po-210 vs Po-210 Control: 36%
  effect on polonium-210 level (in words): reduced
[10]
  binding stability constant (log K): 4.90
[11]
  binding stability constant (log K): 7.76
[12]; Blood
  Co-60 Dose % for animal group: 0.18 ± 0.08%
[12]; Blood, 48 hr
  % Reduction of Co-60 vs Co-60 Control: −98%
[12]; Bone Marrow
  Co-60 Dose % for animal group: Below detection
[12]; Intestine
  Co-60 Dose % for animal group: 0.98 ± 0.23%
[12]; Intestine, 48 hr
  % Reduction of Co-60 vs Co-60 Control: 44%
[12]; Kidney
  Co-60 Dose % for animal group: 0.62 ± 0.04%
[12]; Kidney, 48 hr
  % Reduction of Co-60 vs Co-60 Control: 13%
[12]; Liver
  Co-60 Dose % for animal group: 2.00 ± 0.47%
[12]; Liver, 48 hr
  % Reduction of Co-60 vs Co-60 Control: 0%
[12]; Lung
  Co-60 Dose % for animal group: 0.13 ± 0.05%
[12]; Lung, 48 hr
  % Reduction of Co-60 vs Co-60 Control: 0%
[12]; Muscle
  Co-60 Dose % for animal group: 1.13 ± 0.24%
[12]; Muscle, 48 hr
  % Reduction of Co-60 vs Co-60 Control: 0%
[12]; Spleen
  Co-60 Dose % for animal group: 0.058 ± 0.013%
[12]; Spleen, 48 hr
  % Reduction of Co-60 vs Co-60 Control: 0%
[12]; Stomach
  Co-60 Dose % for animal group: 0.072 ± 0.012%
[12]; Stomach, 48 hr
  % Reduction of Co-60 vs Co-60 Control: 0%
[12]; Total Skeleton (from femur data)
  Co-60 Dose % for animal group: 0.41 ± 0.22%
[12]; Total Skeleton, 48 hr
  % Reduction of Co-60 vs Co-60 Control: 35%
[12]; 48 hr
  effect on blood levels of Co-60: elevated
[12]; day 1 post exposure
  effect on fecal elimination of Co-60: decreased
  effect on urinary elimination of Co-60: noticeably enhanced
[12]; monitored 2 days, not statistically significant, 15 mg/kg
  effect on total Co-60 excretion (urine and feces): appeared to accelerate
[13]
  binding stability constant (log K): 7.5
